According to ChEMBL document CHEMBL1926619, “Structure and in vitro antiparasitic activity of constituents of Citropsis articulata root bark” (J Nat Prod, 2011):
Values after ≈ are worked out from the molar mass of the structure shown.

How the values were obtained:
[1] = Selectivity index, ratio of IC50 for african green monkey Vero cells to IC50 for chloroquine-resistant Plasmodium falciparum FcB1/Colombia; format: toxicity, cell-based; conditions: read-out: Ratio IC50
Vero = test: Cytotoxicity against african green monkey Vero cells; format: ADME, cell-based; conditions: Chlorocebus sabaeus
Leishmania donovani = test: Antileishmanial activity against Leishmania donovani MHOM/ET/L82/LV9 promastigotes after 3 days by MTT assay; format: functional, organism-based; conditions: MHOM/ET/L82/LV9, 72 h
[2] = test system: Trypanosoma brucei brucei; test: Antitrypanosomal activity against Trypanosoma brucei brucei; format: functional, organism-based
Plasmodium falciparum = test: microbe, parasite or virus in culture; format: functional, organism-based; conditions: FcB1/Columbia
Description: Antiplasmodial activity against chloroquine-resistant Plasmodium falciparum FcB1/Colombia infected in human A+ve erythrocytes assessed as inhibition of [G-3H]hypoxanthine uptake preincubated for 24 hrs prior to [G-3H]hypoxanthine addition measured after 18 hrs by liquid scintillation counting

## COc1cc2c(c(O)c1OC)c(=O)c1cccc(O)c1n2C
[1]
  selectivity ratio: 10
Vero
  IC50: 30.5 µg/mL (≈ 101 µM)
Leishmania donovani
  EC50: 20.4 µg/mL (≈ 67.7 µM)
[2]
  EC50: 125 µg/mL (≈ 415 µM)
Plasmodium falciparum
  IC50: 3 µg/mL (≈ 9.96 µM)

## CC(=O)O[C@@H]1C[C@H]2C(C)(C)OC(=O)C=C[C@]2(C)[C@H]2CC[C@@]3(C)[C@H](c4ccoc4)OC(=O)[C@H]4O[C@]43[C@@]21C
Vero
  IC50: > 50 µg/mL
Leishmania donovani
  EC50: 45 µg/mL (≈ 90.3 µM)
[2]
  EC50: > 125 µg/mL
Plasmodium falciparum
  IC50: 9.3 µg/mL (≈ 18.7 µM)

## Cn1c2c(O)cccc2c(=O)c2c(O)cc3c(c21)C=CC(C)(C)O3
[1]
  selectivity ratio: 10
Vero
  IC50: 9.3 µg/mL (≈ 28.8 µM)
Leishmania donovani
  EC50: 11.2 µg/mL (≈ 34.6 µM)
[2]
  EC50: 125 µg/mL (≈ 387 µM)
Plasmodium falciparum
  IC50: 0.9 µg/mL (≈ 2.78 µM)

## CC[C@@]1(O)C(=O)OCc2c1cc1n(c2=O)Cc2cc3ccccc3nc2-1 [CAMPTOTHECIN]
Vero
  IC50: 0.6 µg/mL (≈ 1.72 µM)

## NCCS[As](SCCN)c1ccc(Nc2nc(N)nc(N)n2)cc1 [CYMELARSEN]
[2]
  EC50: 1 µg/mL

## CC(C)=CCc1cc2ccc(=O)oc2cc1O [DEMETHYLSUBEROSIN]
Vero
  IC50: > 50 µg/mL
Leishmania donovani
  EC50: 120 µg/mL (≈ 521 µM)
[2]
  EC50: > 125 µg/mL
Plasmodium falciparum
  IC50: 16.7 µg/mL (≈ 72.5 µM)

## COc1cc2ccc(=O)oc2cc1O[C@@H]1O[C@H](CO[C@@H]2O[C@@H](C)[C@H](O)[C@@H](O)[C@H]2O)[C@@H](O)[C@H](O)[C@H]1O [HAPLOPEROSIDE]
Vero
  IC50: > 50 µg/mL
Leishmania donovani
  EC50: > 125 µg/mL
[2]
  EC50: > 125 µg/mL
Plasmodium falciparum
  IC50: > 100 µg/mL

## C[C@@H]1O[C@@H](O[C@H]2[C@H](Oc3cc(=O)n(C)c4ccccc34)O[C@H](CO)[C@@H](O)[C@@H]2O)[C@H](O)[C@H](O)[C@H]1O [KATIMBORINE]
Vero
  IC50: > 50 µg/mL
Leishmania donovani
  EC50: > 125 µg/mL
[2]
  EC50: > 125 µg/mL
Plasmodium falciparum
  IC50: > 100 µg/mL

## CC1(C)C=Cc2c(ccc(CCC(=O)O)c2O[C@@H]2O[C@H](CO[C@@H]3O[C@H](CO)[C@@H](O)[C@H](O)[C@H]3O)[C@@H](O)[C@H](O)[C@H]2O)O1 [OMUBIOSIDE]
Vero
  IC50: > 50 µg/mL
Leishmania donovani
  EC50: > 125 µg/mL
[2]
  EC50: > 125 µg/mL
Plasmodium falciparum
  IC50: > 100 µg/mL

## N=C(N)c1ccc(OCCCCCOc2ccc(C(=N)N)cc2)cc1 [PENTAMIDINE]
Leishmania donovani
  EC50: 3.1 µg/mL (≈ 9.11 µM)
[2]
  EC50: 1.4 µg/mL (≈ 4.11 µM)

## CC1(C)C=Cc2c(ccc3ccc(=O)oc23)O1 [SESALIN]
Vero
  IC50: > 50 µg/mL
Leishmania donovani
  EC50: > 125 µg/mL
[2]
  EC50: > 125 µg/mL
Plasmodium falciparum
  IC50: > 100 µg/mL

## COc1cc2oc(=O)ccc2cc1CC=C(C)C [SUBEROSIN]
Vero
  IC50: > 50 µg/mL
Leishmania donovani
  EC50: > 125 µg/mL
[2]
  EC50: > 125 µg/mL
Plasmodium falciparum
  IC50: > 100 µg/mL

## C[n+]1cccc(C(=O)[O-])c1.Cl [TRIGONELLINE HYDROCHLORIDE]
Vero
  IC50: > 50 µg/mL
Leishmania donovani
  EC50: > 125 µg/mL
[2]
  EC50: > 125 µg/mL
Plasmodium falciparum
  IC50: > 100 µg/mL
